{
  "source": "paper PMC9516332",
  "about": "(Frontiers in Oncology, 2022)",
  "tested_on": "134 cancer cell lines",
  "assay": "Cell viability assay (ATPlite, 72 hours), IC50 on cancer cell line panel",
  "note": "Read-outs that look alike come from different tables or passages of the source.",
  "data": [
    {"compound": "CCN1CCN(c2ccc(Nc3cc(N(C)C(=O)Nc4c(Cl)c(OC)cc(OC)c4Cl)ncn3)cc2)CC1", "note": "[infigratinib]", "values": [
      {"measurement": "IC50", "setting": "Homo sapiens, MIA PaCa-2, read-out: IC50 in cell proliferation assay, MIA PaCa-2 cell line", "result": "> 3.16", "unit": "µM"},
      {"measurement": "IC50", "setting": "Homo sapiens, MKN-45, read-out: IC50 in cell proliferation assay, MKN45 cell line (MET amplification)", "result": 4.26, "unit": "µM"},
      {"measurement": "IC50", "setting": "Homo sapiens, MOLM-13, read-out: IC50 in cell proliferation assay, MOLM-13 cell line (FLT3 ITD)", "result": 3.99, "unit": "µM"},
      {"measurement": "IC50", "setting": "Homo sapiens, MOLT-4, read-out: IC50 in cell proliferation assay, MOLT-4 cell line", "result": "> 3.16", "unit": "µM"},
      {"measurement": "IC50", "setting": "Homo sapiens, MV4-11, read-out: IC50 in cell proliferation assay, MV4-11 cell line (FLT3 ITD)", "result": 2.57, "unit": "µM"},
      {"measurement": "IC50", "setting": "Homo sapiens, MeWo, read-out: IC50 in cell proliferation assay, MeWo cell line", "result": "> 3.16", "unit": "µM"},
      {"measurement": "IC50", "setting": "Homo sapiens, NCCIT, read-out: IC50 in cell proliferation assay, NCC-IT cell line", "result": 0.466, "unit": "µM"},
      {"measurement": "IC50", "setting": "Homo sapiens, NCI-H82, read-out: IC50 in cell proliferation assay, cell line NCI-H82", "result": "> 3.16", "unit": "µM"},
      {"measurement": "IC50", "setting": "Homo sapiens, NCI-H460, read-out: IC50 in cell proliferation assay, NCI-H460 cell line", "result": "> 3.16", "unit": "µM"},
      {"measurement": "IC50", "setting": "Homo sapiens, NCI-H661, read-out: IC50 in cell proliferation assay, NCI-H661 cell line", "result": "> 3.16", "unit": "µM"},
      {"measurement": "IC50", "setting": "Homo sapiens, NCI-H716, read-out: IC50 in cell proliferation assay, cell line NCI-H716 (FGFR2-COL14A1)", "result": 0.02, "unit": "µM"},
      {"measurement": "IC50", "setting": "Homo sapiens, NCI-H1650, read-out: IC50 in cell proliferation assay, NCI-H1650 cell line (EGFR exon19del)", "result": 5.09, "unit": "µM"},
      {"measurement": "IC50", "setting": "Homo sapiens, NCI-H1975, read-out: IC50 in cell proliferation assay, NCI-H1975 cell line (EGFR p.L858R + p.T790M)", "result": "> 3.16", "unit": "µM"},
      {"measurement": "IC50", "setting": "Homo sapiens, NCI-H2228, read-out: IC50 in cell proliferation assay, NCI-H2228 cell line (EML4-ALK)", "result": 4.38, "unit": "µM"},
      {"measurement": "IC50", "setting": "Homo sapiens, OVCAR-3, read-out: IC50 in cell proliferation assay, cell line OVCAR-3", "result": "> 3.16", "unit": "µM"},
      {"measurement": "IC50", "setting": "Homo sapiens, PFSK-1, read-out: IC50 in cell proliferation assay, cell line PFSK-1", "result": "> 3.16", "unit": "µM"},
      {"measurement": "IC50", "setting": "Homo sapiens, RL95-2, read-out: IC50 in cell proliferation assay, cell line RL95-2 (EGFR p.A289V)", "result": "> 3.16", "unit": "µM"},
      {"measurement": "IC50", "setting": "Homo sapiens, RPMI-7951, read-out: IC50 in cell proliferation assay, cell line RPMI-7951 (BRAF p.V600E)", "result": "> 3.16", "unit": "µM"},
      {"measurement": "IC50", "setting": "Homo sapiens, RS4-11, read-out: IC50 in cell proliferation assay, cell line RS4;11", "result": "> 3.16", "unit": "µM"},
      {"measurement": "IC50", "setting": "Homo sapiens, Rec1, read-out: IC50 in cell proliferation assay, cell line REC-1", "result": 4, "unit": "µM"},
      {"measurement": "IC50", "setting": "Homo sapiens, SHP77, read-out: IC50 in cell proliferation assay, cell line SHP-77", "result": "> 3.16", "unit": "µM"},
      {"measurement": "IC50", "setting": "Homo sapiens, SK-BR-3, read-out: IC50 in cell proliferation assay, cell line SK-BR-3 (ERBB2 amplification)", "result": "> 3.16", "unit": "µM"},
      {"measurement": "IC50", "setting": "Homo sapiens, SK-N-AS, read-out: IC50 in cell proliferation assay, cell line SK-N-AS", "result": "> 3.16", "unit": "µM"},
      {"measurement": "IC50", "setting": "Homo sapiens, SK-N-FI, read-out: IC50 in cell proliferation assay, cell line SK-N-FI", "result": "> 3.16", "unit": "µM"},
      {"measurement": "IC50", "setting": "Homo sapiens, SK-N-MC, read-out: IC50 in cell proliferation assay, cell line SK-N-MC", "result": 3.21, "unit": "µM"},
      {"measurement": "IC50", "setting": "Homo sapiens, SK-N-SH, read-out: IC50 in cell proliferation assay, cell line SK-N-SH (ALK p.F1174L)", "result": 4.47, "unit": "µM"},
      {"measurement": "IC50", "setting": "Homo sapiens, SNU-5, read-out: IC50 in cell proliferation assay, cell line SNU-5 (MET amplification)", "result": "> 3.16", "unit": "µM"},
      {"measurement": "IC50", "setting": "Homo sapiens, SNU-16, read-out: IC50 in cell proliferation assay, cell line SNU-16 (FGFR2 amplification)", "result": 0.028, "unit": "µM"},
      {"measurement": "IC50", "setting": "Homo sapiens, SNU-C2B, read-out: IC50 in cell proliferation assay, cell line SNU-C2B (EGFR p.R165Q)", "result": "> 3.16", "unit": "µM"},
      {"measurement": "IC50", "setting": "Homo sapiens, SU-DHL-1, read-out: IC50 in cell proliferation assay, cell line SU-DHL-1 (NPM1-ALK)", "result": "> 3.16", "unit": "µM"},
      {"measurement": "IC50", "setting": "Homo sapiens, SU-DHL-6, read-out: IC50 in cell proliferation assay, cell line SU-DHL-6", "result": "> 3.16", "unit": "µM"},
      {"measurement": "IC50", "setting": "Homo sapiens, SUP-T1, read-out: IC50 in cell proliferation assay, cell line SUP-T1", "result": "> 3.16", "unit": "µM"},
      {"measurement": "IC50", "setting": "Homo sapiens, SW48, read-out: IC50 in cell proliferation assay, cell line SW48 (EGFR p.G719S)", "result": "> 3.16", "unit": "µM"},
      {"measurement": "IC50", "setting": "Homo sapiens, SW480, read-out: IC50 in cell proliferation assay, cell line SW480", "result": "> 3.16", "unit": "µM"},
      {"measurement": "IC50", "setting": "Homo sapiens, SW626, read-out: IC50 in cell proliferation assay, cell line SW626", "result": "> 3.16", "unit": "µM"},
      {"measurement": "IC50", "setting": "Homo sapiens, SW780, read-out: IC50 in cell proliferation assay, cell line SW780 (FGFR3-BAIAP2L1)", "result": 0.039, "unit": "µM"},
      {"measurement": "IC50", "setting": "Homo sapiens, SW837, read-out: IC50 in cell proliferation assay, cell line SW837", "result": "> 3.16", "unit": "µM"},
      {"measurement": "IC50", "setting": "Homo sapiens, SW872, read-out: IC50 in cell proliferation assay, cell line SW872 (BRAF p.V600E)", "result": "> 3.16", "unit": "µM"},
      {"measurement": "IC50", "setting": "Homo sapiens, SW900, read-out: IC50 in cell proliferation assay, cell line SW900", "result": "> 3.16", "unit": "µM"},
      {"measurement": "IC50", "setting": "Homo sapiens, SW948, read-out: IC50 in cell proliferation assay, cell line SW948", "result": "> 3.16", "unit": "µM"},
      {"measurement": "IC50", "setting": "Homo sapiens, SW982, read-out: IC50 in cell proliferation assay, cell line SW982 (BRAF p.V600E)", "result": "> 3.16", "unit": "µM"},
      {"measurement": "IC50", "setting": "Homo sapiens, SW-620, read-out: IC50 in cell proliferation assay, cell line SW620", "result": "> 3.16", "unit": "µM"},
      {"measurement": "IC50", "setting": "Homo sapiens, T98G, read-out: IC50 in cell proliferation assay, cell line T98G", "result": 0.135, "unit": "µM"},
      {"measurement": "IC50", "setting": "Homo sapiens, TCC-SUP, read-out: IC50 in cell proliferation assay, cell line TCCSUP", "result": "> 3.16", "unit": "µM"},
      {"measurement": "IC50", "setting": "Homo sapiens, THP-1, read-out: IC50 in cell proliferation assay, cell line THP-1", "result": "> 3.16", "unit": "µM"},
      {"measurement": "IC50", "setting": "Homo sapiens, U2OS, read-out: IC50 in cell proliferation assay, cell line U2OS", "result": "> 3.16", "unit": "µM"},
      {"measurement": "IC50", "setting": "Homo sapiens, U-87 MG, read-out: IC50 in cell proliferation assay, cell line U-87MG ATCC", "result": "> 3.16", "unit": "µM"},
      {"measurement": "IC50", "setting": "Homo sapiens, U-118-MG, read-out: IC50 in cell proliferation assay, cell line U-118MG", "result": "> 3.16", "unit": "µM"},
      {"measurement": "IC50", "setting": "Homo sapiens, UMUC3, read-out: IC50 in cell proliferation assay, cell line UM-UC-3", "result": 0.625, "unit": "µM"},
      {"measurement": "IC50", "setting": "Hs766T, read-out: IC50 in cell proliferation assay, Hs 766T cell line", "result": "> 3.16", "unit": "µM"},
      {"measurement": "IC50", "setting": "Rh30, read-out: IC50 in cell proliferation assay, cell line Rh30", "result": 0.525, "unit": "µM"},
      {"measurement": "IC50", "setting": "read-out: IC50 in cell proliferation assay, 11-18 cell line (EGFR p.L858R)", "result": "> 3.16", "unit": "µM"},
      {"measurement": "IC50", "setting": "read-out: IC50 in cell proliferation assay, Hs 852.T cell line", "result": 5.37, "unit": "µM"},
      {"measurement": "IC50", "setting": "read-out: IC50 in cell proliferation assay, JAR cell line", "result": 2.99, "unit": "µM"},
      {"measurement": "IC50", "setting": "read-out: IC50 in cell proliferation assay, cell line 5637", "result": "> 3.16", "unit": "µM"},
      {"measurement": "IC50", "setting": "read-out: IC50 in cell proliferation assay, cell line A-388", "result": "> 3.16", "unit": "µM"},
      {"measurement": "IC50", "setting": "read-out: IC50 in cell proliferation assay, cell line DB", "result": "> 3.16", "unit": "µM"},
      {"measurement": "IC50", "setting": "read-out: IC50 in cell proliferation assay, cell line DEL (NPM1-ALK)", "result": 3.51, "unit": "µM"},
      {"measurement": "IC50", "setting": "read-out: IC50 in cell proliferation assay, cell line ES-2 (BRAF p.V600E)", "result": "> 3.16", "unit": "µM"},
      {"measurement": "IC50", "setting": "read-out: IC50 in cell proliferation assay, cell line PA-1", "result": 2.15, "unit": "µM"},
      {"measurement": "IC50", "setting": "read-out: IC50 in cell proliferation assay, cell line PC-3", "result": "> 3.16", "unit": "µM"},
      {"measurement": "IC50", "setting": "read-out: IC50 in cell proliferation assay, cell line RD", "result": "> 3.16", "unit": "µM"},
      {"measurement": "IC50", "setting": "read-out: IC50 in cell proliferation assay, cell line RKO (BRAF p.V600E)", "result": "> 3.16", "unit": "µM"},
      {"measurement": "IC50", "setting": "read-out: IC50 in cell proliferation assay, cell line RL", "result": "> 3.16", "unit": "µM"},
      {"measurement": "IC50", "setting": "read-out: IC50 in cell proliferation assay, cell line RT-4 (FGFR3-TACC3)", "result": 0.014, "unit": "µM"},
      {"measurement": "IC50", "setting": "read-out: IC50 in cell proliferation assay, cell line SR (NPM1-ALK)", "result": "> 3.16", "unit": "µM"},
      {"measurement": "IC50", "setting": "read-out: IC50 in cell proliferation assay, cell line T24", "result": "> 3.16", "unit": "µM"},
      {"measurement": "IC50", "setting": "read-out: IC50 in cell proliferation assay, cell line TT (RET p.C634W)", "result": "> 3.16", "unit": "µM"},
      {"measurement": "IC50", "setting": "read-out: IC50 in cell proliferation assay, cell line VA-ES-BJ", "result": "> 3.16", "unit": "µM"}
    ]}
  ]
}
